Test results: the NIST ThermoML archive (doi:10.1021/acs.jced.7b00185)
± gives the expanded uncertainty stated by the source.

Conditions: Liquid; for mass density: 298.15 K, 101.33 kPa, Vibrating tube method; for vapor or sublimation pressure: Ebulliometric method (Recirculating still)

Row | mass density | vapor or sublimation pressure (336.61 K) | vapor or sublimation pressure (344.29 K) | vapor or sublimation pressure (350.5 K) | vapor or sublimation pressure (355.83 K) | vapor or sublimation pressure (360.49 K) | vapor or sublimation pressure (363 K) | SMILES
1 | 786.56 ± 0.12 kg/m3 |  |  |  |  |  |  | CO [methanol]
2 | 1028.08 ± 0.1 kg/m3 |  |  |  |  |  |  | CCOC(=O)C(C)O (racemic) [DL-ethyl lactate]
3 | 1063.29 ± 0.08 kg/m3 | 40 ± 3.5 kPa | 53.33 ± 3.8 kPa | 66.66 ± 4.6 kPa | 79.99 ± 5.3 kPa | 93.32 ± 5.9 kPa | 101.3 ± 6.4 kPa | COC(=O)OC [dimethyl carbonate]
